What was measured:
[1] = system: Parkinson's disease psychosis (PDP) patients; assay: Phase III six-week randomized double-blind placebo-controlled study in PDP patients; format: in vivo, human
Description: A six-week, multi-center, randomized, double-blind, placebo-controlled study was conducted in PDP patients. The purpose of the study was to evaluate the safety and efficacy of 40 mg pimavanserin compared to placebo in the treatment of PDP.
A total of 199 patients were enrolled in the study and randomized on a one-to-one basis to receive either 40 mg of pimavanserin or placebo once daily for six weeks, following a two-week screening period including brief psycho-social therapy. Patients also received stable doses of their existing anti-Parkinson's therapy throughout the study.
At the screening visit, a trained member of the site staff worked with the patient's caregiver to devise a structured plan of social interaction for the patient and caregiver to follow at home. This brief non-pharmacologic psychosocial counseling was intended to help the patient and caregiver to manage the symptoms and provide standard of care prior to the blinded investigational treatment phase. Following the screening visit, patients received two follow-up phone calls (˜3- and 7-days from the screening visit) to review the plan and evaluate progress. Only those patients who met entry criteria at baseline were randomized to receive 40 mg pimavanserin or matching placebo for the 6-week treatment period.
The maximum duration of the study for each subject was approximately 12 weeks. Pimavanserin was administered in tablet form, once daily by mouth in 40 mg doses (2 tablets of 20 mg). Placebo was administered with visibly matching tablets, using the same route and regimen. The safety of subjects was assessed by monitoring adverse events, physical examinations, vital signs, clinical laboratory tests (hematology, clinical chemistry, and urinalysis), and electrocardiograms.
Primary Clinical Endpoint: The combined score for the modified 9-item hallucinations and delusions domains of the Scale for the Assessment of Positive Symptoms (SAPS-PD).
Key Secondary Endpoint: Parts II-III of the Unified Parkinson's Disease Rating Scale (UPDRS), which measures motor function.
Other Secondary Endpoints: Changes in the Clinical Global Impression Scale (CGI) with emphasis on severity (CGI-S) and improvement (CGI-I) of psychosis.
Exploratory Endpoints: the Caregiver Burden Scale, and Scales for Outcomes in Parkinson's Disease-Sleep scale (SCOPA-Sleep).
Note: mixed model repeated measures (MMRM) method was applied in primary analysis of the intent-to-treat (ITT) population. The significance test was based on least-square mean change from baseline for each arm using a 2-sided […]=0.05.

[2] = system: DOI ((±)-2,5-dimethoxy-4-iodoamphetamine, a serotonin agonist) induced head twitches; conditions: rat; oral doses of 3 and 10 mg/kg; cited from earlier work
[3] = system: gating deficit induced by DOI; conditions: rat; doses of 1 and 3 mg/kg SC; cited from earlier work
[4] = system: learning of a simple auto-shaped response; conditions: mice; intraperitoneal doses up to 32 mg/kg; cited from earlier work
[5] = system: hyperactivity induced by the N-methyl-D-aspartate antagonist MK-801; conditions: mice; oral doses of 3 and 10 mg/kg; cited from earlier work

For `CC(C)COc1ccc(CNC(=O)N(Cc2ccc(F)cc2)C2CCN(C)CC2)cc1` [Pimavanserin, N-(1-methylpiperidin-4-yl)-N-(4-fluorophenylmethyl)-N′-(4-(2-methylpropyloxy)phenylmethyl)carbamide], which “safety and tolerability in the trial” value ([1]; 40 mg once daily oral, 6 weeks) is on record?
The value was “safe and well tolerated”.

What about the “SAPS-PD Mean Change at Day 43” value ([1]; 40 mg once daily oral, 6 weeks, n = 95, ITT, MMRM least-square mean change from baseline, P-value 0.001 vs placebo) of the same compound?
Its value is −5.79.

And the “serious adverse event: urinary tract infection (number of patients)” value ([1]; 40 mg once daily oral, 6 weeks, placebo 1)?
Its value is 3.

And the “adverse event incidence: falls” value ([1]; 40 mg once daily oral, 6 weeks, placebo 8.5%)?
The value was 10.6%.

And the “adverse event incidence: urinary tract infection” value ([1]; 40 mg once daily oral, 6 weeks, placebo 11.7%)?
The value was 13.5%.

What about the “serious adverse event: psychotic disorder (number of patients)” value ([1]; 40 mg once daily oral, 6 weeks, placebo zero) of the same compound?
Its value is 2.

And the “CGI-I scale (secondary efficacy measure)” value ([1]; 40 mg once daily oral, 6 weeks, versus placebo, p=0.001)?
The value was “highly significant improvement”.

What about the “Caregiver Burden Scale” value ([1]; 40 mg once daily oral, 6 weeks, versus placebo, p=0.002) of the same compound?
Its value is “highly significant improvement”.

What about the “daytime wakefulness on SCOPA-sleep scale” value ([1]; 40 mg once daily oral, 6 weeks, versus placebo, p=0.012) of the same compound?
Its value is “significant improvements”.

What about the “nighttime sleep on SCOPA-sleep scale” value ([1]; 40 mg once daily oral, 6 weeks, versus placebo, p=0.045) of the same compound?
The value was “significant improvements”.

What about the “improvement in psychosis at day 43 on SAPS-PD” value ([1]; 40 mg once daily oral, day 43, blinded independent centralized raters) of the same compound?
The value was 5.79 point.

What about the “treatment difference on SAPS-PD versus placebo” value ([1]; 40 mg once daily oral, day 43, p=0.001) of the same compound?
The value was 3.06 points.

And the “change in combined UPDRS II & III scores” value ([1]; 40 mg once daily oral, mean change from baseline to day 43)?
Its value is −1.40.

What about the “motor function (UPDRS Parts II-III, non-inferiority versus placebo)” value ([1]; two-sided 95 percent CI of treatment difference, pre-specified margin of 5 points, day 43) of the same compound?
The value was “did not worsen motor function”.

What about the “activity in DOI induced head twitches” value [2] of the same compound?
Its value is “effective”.

And the “reversal of DOI induced sensory motor gating deficit” value [3]?
The value was “potently reversed the gating deficit”.

What about the “disruption of learning of a simple auto-shaped response” value [4] of the same compound?
The value was “failed to disrupt learning”.

And the “attenuation of MK-801 induced hyperactivity” value [5]?
Its value is “effective”.

Reference: patent publication US9446037B2, “Methods for the treatment of parkinson's disease psychosis using pimavanserin” (ACADIA Pharmaceuticals Inc., priority 2012, dated 2016)
